Test results taken from ChEMBL document CHEMBL1143348, “Design, synthesis, and cytoprotective effect of 2-aminothiazole analogues as potent poly(ADP-ribose) polymerase-1 inhibitors” (J Med Chem, 2009).

Key:
[1] = molecular target: Poly [ADP-ribose] polymerase 1 (Homo sapiens, UniProt P09874)
Description: Inhibition of human recombinant PARP1

PC-12 [2] = assay: Cytoprotective activity against H2O2-induced cell death in rat PC12 cells by MTT assay after 6 hrs; format: functional, cell-based; conditions: PC-12, 6 h
PC-12 [3] = assay: Cytoprotective activity against oxygen-glucose deprivation-induced cell death in rat PC12 cells by MTT assay; format: functional, cell-based
PC-12 [4] = assay: Cytoprotective activity against oxygen-glucose deprivation-induced apoptosis in rat PC12 assessed as damaged cells at 3 uM by flow cytometry using FITC-conjugated annexin V and propidium iodide staining relative to control; format: functional
PC-12 [5] = assay: Cytoprotective activity against oxygen-glucose deprivation-induced apoptosis in rat PC12 assessed as late apoptotic cells at 3 uM by flow cytometry using FITC-conjugated annexin V and propidium iodide staining relative to control; format: functional
PC-12 [6] = assay: Cytoprotective activity against oxygen-glucose deprivation-induced apoptosis in rat PC12 assessed as early apoptotic cells at 3 uM by flow cytometry using FITC-conjugated annexin V and propidium iodide staining relative to control; format: functional
PC-12 [7] = assay: Cytoprotective activity against oxygen-glucose deprivation-induced apoptosis in rat PC12 assessed as live cells at 3 uM by flow cytometry using FITC-conjugated annexin V and propidium iodide staining relative to control; format: functional
PC-12 [8] = assay: Cytoprotective activity against oxygen-glucose deprivation-induced apoptosis in rat PC12 assessed as total apoptotic cells at 3 uM by flow cytometry using FITC-conjugated annexin V and propidium iodide staining relative to control; format: functional
PC-12 [9] = assay: Cytoprotective activity in rat PC12 cells assessed as reduction in oxygen-glucose deprivation-induced LDH release at 3 uM; format: functional; parameters: scale not given: the % may be the effect or the level left

Chain of Poly [ADP-ribose] polymerase 1 (P09874 whole entry): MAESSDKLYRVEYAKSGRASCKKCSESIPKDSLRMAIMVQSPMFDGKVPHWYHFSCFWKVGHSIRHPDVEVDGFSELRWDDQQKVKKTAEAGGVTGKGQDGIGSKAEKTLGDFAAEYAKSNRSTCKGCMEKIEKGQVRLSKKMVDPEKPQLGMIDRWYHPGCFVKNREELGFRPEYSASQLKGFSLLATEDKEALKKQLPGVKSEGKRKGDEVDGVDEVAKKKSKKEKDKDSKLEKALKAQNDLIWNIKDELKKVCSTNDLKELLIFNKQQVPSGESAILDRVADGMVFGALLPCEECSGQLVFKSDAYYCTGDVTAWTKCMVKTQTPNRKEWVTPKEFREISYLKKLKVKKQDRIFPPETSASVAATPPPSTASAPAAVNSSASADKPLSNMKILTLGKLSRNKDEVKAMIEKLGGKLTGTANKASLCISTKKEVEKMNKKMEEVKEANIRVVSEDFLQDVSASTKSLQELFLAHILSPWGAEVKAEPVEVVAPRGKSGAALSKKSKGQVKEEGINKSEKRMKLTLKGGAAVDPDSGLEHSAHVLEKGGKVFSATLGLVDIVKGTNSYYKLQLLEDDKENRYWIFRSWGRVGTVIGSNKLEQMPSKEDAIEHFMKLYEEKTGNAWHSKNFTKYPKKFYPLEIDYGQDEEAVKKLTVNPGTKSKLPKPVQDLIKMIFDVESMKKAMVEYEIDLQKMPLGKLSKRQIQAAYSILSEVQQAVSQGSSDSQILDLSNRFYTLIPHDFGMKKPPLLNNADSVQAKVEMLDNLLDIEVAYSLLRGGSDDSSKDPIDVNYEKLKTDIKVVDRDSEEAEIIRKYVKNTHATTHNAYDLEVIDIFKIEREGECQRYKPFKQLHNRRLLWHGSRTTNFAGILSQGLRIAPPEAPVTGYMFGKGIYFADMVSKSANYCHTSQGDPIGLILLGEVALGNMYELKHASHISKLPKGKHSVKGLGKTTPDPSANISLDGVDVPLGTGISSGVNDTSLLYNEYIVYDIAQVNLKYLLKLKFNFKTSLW

Row | SMILES | IC50 [1] | EC50 (PC-12 [2]) | EC50 (PC-12 [3]) | other results
1 | O=c1[nH]c(CCCN2CC=C(c3ccccc3)CC2)nc2cccc(Cl)c12 | 682 nM | – | – | –
2 | O=c1[nH]c2ccc(CCCN3CC=C(c4ccccc4)CC3)cc2c2ccccc12 | 119 nM | – | – | –
3 | CCOC(=O)CCC(=O)Nc1nc2c(s1)CCCC2 | 12400 nM | > 3000 nM | 961 nM | –
4 | O=C(/C=C/c1ccccc1)Nc1nc(-c2ccccc2)cs1 | 224 nM | 129 nM | 559 nM | Activity (PC-12 [4]): 3.9%; Activity (PC-12 [5]): 3.7%; Activity (PC-12 [6]): 8.4%; Activity (PC-12 [7]): 84%; Activity (PC-12 [8]): 64.4%; Activity (PC-12 [9]): 33.1%
5 | CCOC(=O)CCC(=O)Nc1nc(-c2ccccc2)cs1 | 240 nM | 537 nM | 143 nM | Activity (PC-12 [4]): 5%; Activity (PC-12 [5]): 5.9%; Activity (PC-12 [6]): 8.5%; Activity (PC-12 [7]): 80.6%; Activity (PC-12 [8]): 70.7%; Activity (PC-12 [9]): 34.6%
6 | Nc1ncnc2c1ncn2[C@@H]1O[C@H](COCNC(=O)CCC(=O)Nc2cccc3c2CNC3=O)[C@@H](O)[C@H]1O | 100 nM | – | – | –
7 | Cc1sc(-c2ccccc2)nc1C(=O)Nc1cccc(Cc2n[nH]c(=O)c3ccccc23)c1 | 27 nM | – | – | –
8 | O=C(CCn1c2c(c(=O)[nH]c1=O)CSCC2)NCC(=O)c1ccc(-c2ccnnc2)cc1 | 25 nM | – | – | –
9 | O=C1NCCn2c(CN3CCCCC3)cc3cccc1c32 | 109 nM | – | – | –
10 | O=c1[nH]c2ccc(CCN3CC=C(c4ccccc4)CC3)cc2c2ccccc12 | 46 nM | – | – | –
11 | CCOc1ccc(-c2csc(/N=C/c3c[nH]c4ccccc34)n2)c(OCC)c1 | 240 nM | 324 nM | 361 nM | Activity (PC-12 [9]): 28.4%
12 | CN(C)CCCOc1ccc(-c2nc3cccc4c3n2CCNC4=O)cc1 | 63 nM | – | – | –
13 | O=c1[nH]c(CCCN2CC=C(c3ccccc3)CC2)nc2c1CCC2 | 249 nM | – | – | –
14 | CC1CCc2nc(CCCN3CC=C(c4ccccc4)CC3)[nH]c(=O)c2C1 (configuration not stated) | 274 nM | – | – | –
15 | CCOC(=O)c1ccc(CCc2nc3cccc4c3n2CCNC4=O)cc1 | 97 nM | – | – | –
16 | O=C(Nc1nc(-c2ccccc2)cs1)c1ccncc1 | 753 nM | 1550 nM | 191 nM | Activity (PC-12 [4]): 6%; Activity (PC-12 [5]): 11.6%; Activity (PC-12 [6]): 8.6%; Activity (PC-12 [7]): 73.8%; Activity (PC-12 [8]): 45.1%; Activity (PC-12 [9]): 20.1%
17 | COc1cc(/C=C/C(=O)Nc2nc(-c3ccccc3)cs2)cc(OC)c1 | 4530 nM | 1120 nM | 527 nM | Activity (PC-12 [9]): 24%
18 | COc1cc(/C=C/C(=O)Nc2nc3c(s2)CCCC3)cc(OC)c1 | 9330 nM | 2090 nM | 1040 nM | –
